The term Kd denotes the concentration at which binding is half-saturated. Higher therefore signals a looser complex.

This is an account of results in patent US20230255906A1, “Targeting Serpin B9 in Cancer” (The Brigham and Women`s Hospital, Inc., priority 2020, published 2023).

The target in one experiment is T1, MBP-Sb9 (Homo sapiens, UniProt P50453).
T1 construct: made in house
Nature of the experiment: Surface plasmon resonance (SPR) binding. The note with it: 25° C., 1:1 Langmuir model. Here is the method:
Surface plasmon resonance (SPR) measures change in refractive index on a biosensor surface, as analytic mass accumulates via binding to an attached ligand. This allows derivation of affinity (KD) from measured kinetic rates of association (ka) and dissociation (kd). All assays were run at 25° C. on a BiOptix 404pi. An NTA biosensor chip was used in this study to pre-concentrate 3 μM MBP-Sb9 via an N-terminal His-tag. MBP-Sb9 was covalently immobilized with EDC/NHS in 20 mM HEPES pH 8.0, 150 mM NaCl, 0.05% Tween-20, 5 mM β-ME to 10,000 to 15,000 RUs. MBP was similarly immobilized on a separate channel as a negative control. Compounds were injected as 3-fold serial dilutions in duplicate starting at 200 μM. Injections were done at 50 μL/min for 60 seconds, followed by a 120 second dissociation in 20 mM HEPES, pH 8.0, 150 mM NaCl, 0.05% Tween-20, 5 mM j-ME, 1% DMSO. A series of five DMSO standards between 0.5% and 1.5% were included with each run to correct for bulk refractive index. Sensorgrams were analyzed using Scrubber 2 software with a double reference and fit to a 1:1 Langmuir model to determine the interaction parameters KD, ka, and kd.

A further experiment relates to LAMP1. Nature of the experiment: LAMP1 / lysosome fluorescence micrographs. Type of experiment: cell-based. The text has this: FIG. 4H. […] DAPI was used to counterstain the cell nuclei. Scale bar: 10 μm.
Lysosomes have a pH of 4 and are the most acidic compartment within cells. Therefore, it was hypothesized that lysosomes contain an environment that is conducive for the binding between the compound of Formula (III) and Sb9. Both Sb9 and GrB were co-localized in the lysosomes of B16 melanoma cells (FIG. 4F).

Experiment [1] concerns RENCA mouse kidney tumors. Nature of the experiment: RENCA kidney tumor model in BALB/c mice. Type of experiment: in vivo. The note with it: 300 μg i.p. bid for 21 days. The text has this:
FIGS. 6N-6O. […] Data are expressed as means±SEM. *P<0.05, **P<0.01 (Student's t-test). Mean survival time (MST) is increased in mice treated with the compound of Formula (III) as compared to Control group (FIG. 6O).
Furthermore, similar antitumor effects and increased MST using the compound of Formula (III) in two other in vivo tumor models were observed: Renca renal cell carcinoma and LLC1 lung cancer (FIGS. 6M-6Q). Thus, inhibition of Sb9 by the compound of Formula (III) has potent anti-tumor effects in a broad spectrum of tumors, including melanomas as well as breast, lung, and kidney tumors.

Experiment [2] has as its system B16-WT mouse melanoma tumors. The experiment in a line: B16 melanoma tumor model in C57BL/6 mice. The format is in vivo. Here is the method: Mice were anesthetized with isoflurane, and tumor cell lines (B16, A375, and 4T1) were gently injected subcutaneously in the flanks or mammary glands of mice. One hundred thousand cells (1×10^5 cells) were injected per mouse for most of the experiments. However, twenty-five thousand cells (25×10^3 cells) were injected per mouse for the experiments using the compound of Formula (III). Upon 4 hrs post-implantation, 300 μg of the compound of Formula (III) was administered twice a day intraperitoneally for 14 days. Tumor growth was monitored three times per week by digital caliper (Fisherbrand™ Traceable™ Digital Calipers).
The anti-tumor activity of the compound of Formula (III) in vivo was assessed. […] Treatment with the compound of Formula (III) increased the median survival time (MST) of mice bearing B 16-WT mouse melanoma tumors and receiving treatment with the compound of Formula (III) as compared to mice bearing B16-WT melanoma tumors and not receiving treatment (MST=39 days vs MST=26 days, respectively) (FIG. 51B). Next, the effect of the compound of Formula (III) on tumor immunity was examined.
The efficacy of the compound of Formula (III) was assessed in C57BL/6J mice (FIG. 18). B16 mouse melanoma cells were implanted subcutaneously into the right flanks of C57BL/6J mice, and the mice were randomized into three groups: (1) no treatment (control), (2) treatment with anti-PD1, and (3) treatment with Formula (III). The mice in the anti-PD1 group received 200 μg of anti-PD1 iv every 3 days, and those in the Formula (III) group received 300 μg of Formula (III) twice a day consecutively for 14 days.
A survival study using the compound of Formula (IV) in mice harboring B16 melanoma was performed. Mice implanted with B16 tumors were treated with the compound of Formula (IV) (n=8) and compared to a control group having B16 tumors and not receiving treatment with the compound of Formula (IV) (n=8).

[3] abbreviates: 17 days post-implantation, flow cytometry.

SMILES strings stand for the structures.

T1 sequence (P50453 whole entry): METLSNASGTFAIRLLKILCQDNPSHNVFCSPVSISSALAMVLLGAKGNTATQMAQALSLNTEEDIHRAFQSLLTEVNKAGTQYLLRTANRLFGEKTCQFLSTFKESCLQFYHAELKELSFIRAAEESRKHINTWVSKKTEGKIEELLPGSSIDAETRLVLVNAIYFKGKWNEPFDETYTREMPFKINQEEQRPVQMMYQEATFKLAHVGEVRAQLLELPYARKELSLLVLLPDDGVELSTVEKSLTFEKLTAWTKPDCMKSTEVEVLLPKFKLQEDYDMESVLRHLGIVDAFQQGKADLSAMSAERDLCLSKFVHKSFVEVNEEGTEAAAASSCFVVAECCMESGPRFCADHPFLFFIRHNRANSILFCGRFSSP

`O=C(O)c1ccc2ncoc2c1` [Formula (III), 1,3-benzoxazole-6-carboxylic acid] gave a Kd on MBP-Sb9 of 273 µM. The “LAMP1 expression and lysosome areas” value in the experiment with LAMP1 is “significantly increased the LAMP1 expressions”. Moreover, the “Mean survival time (MST) vs Control” value in experiment [1] is recorded as “increased”. Besides, the “tumor growth vs control” value in experiment [1] (male BALB/c mice) is given as “significantly slower growth”. Also, in experiment [2] (17 days post-implantation), the “level of effector IFNγ+ CD4+ cells in TME” value is on record as “increased level”; the “level of immunosuppressive IL10+CD4+ and IL10+CD8+ cells in TME” value is given as “decreased level”. In experiment [2] (setting [3]), the “levels of immunosuppressive Tregs, TAMs, and MDSCs in melanoma vs control” value is reported as “significantly lower”; the “populations of CD44+ CD62L− (effector memory) CD8+, GrB+ CD8+ and IFNγ+ CD8+ in melanoma vs control” value is listed as “significantly higher”. The “median survival time (MST)” value in experiment [2] (B16-WT tumors, 300 μg i.p. bid for 14 days (FIG. 5B)) was 39 days. For the same compound, the “median survival time (MST)” value in experiment [2] (C57BL/6J, FIG. 18, Formula (III) 300 μg twice a day 14 days, anti-PD1 200 μg iv every 3 days) came out at 36 days. In experiment [2] (C57BL/6 mice, 300 μg i.p. bid for 14 days), the “reduction of size of B16 tumors vs control” value is 3.7 fold.
